Consider nine molecules from ChEMBL document CHEMBL4342421, “Current scenario of tetrazole hybrids for antibacterial activity” (Eur J Med Chem, 2019).

≈ marks a conversion by molar mass, not a printed value.

By MIC is commonly meant the lowest concentration found to suppress growth.

The test system of test [1] is Pseudomonas aeruginosa. Nature of the test: Antimicrobial activity against Pseudomonas aeruginosa. Type of test: functional.
For test [2], the system named is Pseudomonas aeruginosa. Nature of the test: Potency index, ratio of streptomycin MIC to test compound MIC for antimicrobial activity against Pseudomonas aeruginosa. Type of test: functional.
Test [3] relates to Bacillus subtilis. Nature of the test: Antimicrobial activity against Bacillus subtilis. The test is classed as functional.
Test [4] deals with Escherichia coli. The experiment in a line: Potency index, ratio of streptomycin MIC to test compound MIC for antimicrobial activity against Escherichia coli. The test is classed as functional.
Test [5] concerns Staphylococcus aureus. The experiment in a line: Antimicrobial activity against Staphylococcus aureus. The test is classed as functional.
For test [6], the system named is Bacillus subtilis. Nature of the test: Potency index, ratio of streptomycin MIC to test compound MIC for antimicrobial activity against Bacillus subtilis. Type of test: functional.
Test [7] has as its system Escherichia coli. The experiment in a line: Antimicrobial activity against Escherichia coli. The test is classed as functional.
Test [8] concerns Streptococcus pyogenes. The experiment in a line: Antimicrobial activity against Streptococcus pyogenes. The test is classed as functional.
The subject of test [9] is Proteus vulgaris. Nature of the test: Antimicrobial activity against Proteus vulgaris. Type of test: functional.
The subject of test [10] is Klebsiella pneumoniae. Nature of the test: Antimicrobial activity against Klebsiella pneumoniae. The test is classed as functional.
Test [11] deals with Klebsiella pneumoniae. Nature of the test: Antimicrobial activity against Klebsiella pneumoniae ATCC 700603 assessed as zone of inhibition at 100 ug/ml after 24 hrs by disc diffusion method. Particulars: ATCC 700603, 24 h, read-out: IZ. Type of test: functional. In general terms: In agar diffusion tests the substance spreads into inoculated agar from a disc or well.
In test [12] the test system is Staphylococcus aureus. Nature of the test: Antimicrobial activity against Staphylococcus aureus ATCC 25923 assessed as zone of inhibition at 100 ug/ml after 24 hrs by disc diffusion method. The test is classed as functional. To be noted: ATCC 25923, 24 h, read-out: IZ.
Test [13] relates to Candida albicans. Nature of the test: Antifungal activity against Candida albicans. Type of test: functional.
Test [14] deals with Candida tropicalis. The experiment in a line: Antifungal activity against Candida tropicalis. The test is classed as functional.
For test [15], the system named is Escherichia coli. Nature of the test: Antimicrobial activity against Escherichia coli after 24 hrs by agar disk diffusion method. Type of test: functional.
For test [16], the system named is Pichia kudriavzevii. The experiment in a line: Antifungal activity against Candida krusei.
The test system of test [17] is Aspergillus niger. Nature of the test: Antifungal activity against Aspergillus niger. Type of test: functional.
For test [18], the system named is Bacillus cereus. Nature of the test: Antimicrobial activity against Bacillus cereus. The test is classed as functional.
Test [19] concerns Proteus mirabilis. The experiment in a line: Antimicrobial activity against Proteus mirabilis after 24 hrs by agar disk diffusion method. Type of test: functional.
Test [20] deals with Klebsiella pneumoniae. Nature of the test: Antimicrobial activity against Klebsiella pneumoniae after 24 hrs by agar disk diffusion method. Type of test: functional.
For test [21], the system named is Pseudomonas aeruginosa. The experiment in a line: Antimicrobial activity against Pseudomonas aeruginosa after 24 hrs by agar disk diffusion method. Type of test: functional.
In test [22] the test system is Nakaseomyces glabratus. Nature of the test: Antifungal activity against Candida glabrata. Type of test: functional.
Test [23] deals with Staphylococcus epidermidis. The experiment in a line: Antimicrobial activity against Staphylococcus epidermidis. Type of test: functional.
The subject of test [24] is Proteus mirabilis. Nature of the test: Antimicrobial activity against Proteus mirabilis. Type of test: functional.
Test [25] has as its system Staphylococcus aureus. The experiment in a line: Antimicrobial activity against Staphylococcus aureus assessed as zone of inhibition at 100 ug/ml. The test is classed as functional. Particulars: read-out: IZ.
Test [26] relates to Escherichia coli. Nature of the test: Antimicrobial activity against Escherichia coli assessed as zone of inhibition at 100 ug/ml. Type of test: functional. To be noted: read-out: IZ.
The test system of test [27] is Streptococcus. The experiment in a line: Antimicrobial activity against Streptococcus assessed as zone of inhibition at 100 ug/ml. Particulars: read-out: IZ. Type of test: functional.
The test system of test [28] is Bacillus subtilis. Nature of the test: Antimicrobial activity against Bacillus subtilis assessed as zone of inhibition at 100 ug/ml. Type of test: functional. To be noted: read-out: IZ.
Test [29] has as its system Bacillus subtilis. Nature of the test: Antimicrobial activity against Bacillus subtilis assessed as zone of inhibition at 30 ug/ml. To be noted: read-out: IZ. The test is classed as functional.
Test [30] relates to Escherichia coli. Nature of the test: Antimicrobial activity against Escherichia coli assessed as zone of inhibition at 250 ug/ml after 24 hrs by disk diffusion method. The test is classed as functional. Particulars: read-out: IZ.
For test [31], the system named is Candida albicans. The experiment in a line: Antifungal activity against Candida albicans assessed as zone of inhibition at 30 ug/ml. Type of test: functional. To be noted: read-out: IZ.
Test [32] deals with Bacillus cereus. Nature of the test: Antimicrobial activity against Bacillus cereus assessed as zone of inhibition at 250 ug/ml. To be noted: read-out: IZ. The test is classed as functional.
Test [33] has as its system Candida albicans. The experiment in a line: Antifungal activity against Candida albicans assessed as zone of inhibition at 250 ug/ml. To be noted: read-out: IZ. The test is classed as functional.
Test [34] has as its system Pseudomonas aeruginosa. The experiment in a line: Antimicrobial activity against Pseudomonas aeruginosa assessed as zone of inhibition at 30 ug/ml. To be noted: read-out: IZ. Type of test: functional.
Test [35] relates to Aspergillus fumigatus. Nature of the test: Antifungal activity against Aspergillus fumigatus assessed as zone of inhibition at 30 ug/ml. The test is classed as functional. Particulars: read-out: IZ.
The subject of test [36] is Escherichia coli. Nature of the test: Antimicrobial activity against Escherichia coli assessed as zone of inhibition at 30 ug/ml. Type of test: functional. Particulars: read-out: IZ.
For test [37], the system named is Escherichia coli. Nature of the test: Antimicrobial activity against Escherichia coli assessed as zone of inhibition at 250 ug/ml. Type of test: functional. To be noted: read-out: IZ.
The subject of test [38] is Staphylococcus aureus. Nature of the test: Antimicrobial activity against Staphylococcus aureus assessed as zone of inhibition at 30 ug/ml. The test is classed as functional. To be noted: read-out: IZ.
The test system of test [39] is Staphylococcus aureus. The experiment in a line: Antimicrobial activity against Staphylococcus aureus assessed as zone of inhibition at 250 ug/ml. Particulars: read-out: IZ. The test is classed as functional.
Test [40] has as its system Pseudomonas aeruginosa. Nature of the test: Antimicrobial activity against Pseudomonas aeruginosa assessed as zone of inhibition at 250 ug/ml. Type of test: functional. To be noted: read-out: IZ.
Test [41] has as its system Aspergillus niger. Nature of the test: Antifungal activity against Aspergillus niger assessed as zone of inhibition at 250 ug/ml. The test is classed as functional. To be noted: read-out: IZ.
Test [42] has as its system Enterococcus faecalis. The experiment in a line: Antimicrobial activity against Enterococcus faecalis. The test is classed as functional.
Test [43] relates to Listeria monocytogenes. The experiment in a line: Antimicrobial activity against Listeria monocytogenes. The test is classed as functional.
Test [44] has as its system Salmonella typhimurium. Nature of the test: Antimicrobial activity against Salmonella typhimurium. The test is classed as functional, Salmonella enterica subsp. enterica serovar Typhimurium. To be noted: Salmonella enterica.
Test [45] has as its system Escherichia coli. The experiment in a line: Potency index, ratio of ciprofloxacin MIC to test compound MIC for antimicrobial activity against Escherichia coli. Type of test: functional.
Test [46] has as its system Bacillus subtilis. Nature of the test: Potency index, ratio of ciprofloxacin MIC to test compound MIC for antimicrobial activity against Bacillus subtilis. Type of test: functional.

In the case of `O=c1c(OCc2nnn[nH]2)c(-c2ccc(F)cc2)oc2ccccc12`, the minimum inhibitory concentration (MIC) in test [1], in [3], in test [5] and in test [7] was 100 µg/mL (≈ 296 µM) in each case. For the same molecule, the Ratio in test [2], in test [4] and in test [6] was 2 - 4 each time.
Consider `O=C(O)c1cn(C2CC2)c2cc(N3CCN(C(=O)Cn4nnnc4S)CC3)c(F)cc2c1=O`, for which the MIC in test [8], in [9], in test [10] and in test [5] was 2 to 128 µg/mL (≈ 4.22 to 270 µM) throughout.
For `CC1(C)S[C@@H]2[C@H](NC(=O)[C@H](N)c3ccccc3)C(=O)N2[C@H]1C(=O)O` [AMPICILLIN], the zone of inhibition at 100 µg/mL in [11] amounted to 15 mm; in test [12], 16.5 mm. The MIC is 2 to 250 µg/mL (≈ 5.72 to 715 µM) in test [1]; 2 to 250 µg/mL (≈ 5.72 to 715 µM) in [13]; 2 to 64 µg/mL (≈ 5.72 to 183 µM) in [14]; 6.25 µg/mL (≈ 17.9 µM) in test [15]; 2 to 64 µg/mL (≈ 5.72 to 183 µM) in test [16]; 100 to 250 µg/mL (≈ 286 to 715 µM) in test [17]. Also, the MIC in [18] is 6.25 µg/mL (≈ 17.9 µM); in [3], 2 to 64 µg/mL (≈ 5.72 to 183 µM); in test [19] it was 6.25 µg/mL (≈ 17.9 µM); in test [20] it was 6.25 µg/mL (≈ 17.9 µM); in test [5], 2 to 250 µg/mL (≈ 5.72 to 715 µM); in test [21], 6.25 µg/mL (≈ 17.9 µM). Besides, the minimal inhibitory concentration (MIC) in [22] lay within 2 to 64 µg/mL (≈ 5.72 to 183 µM); in test [7] it was 2 to 250 µg/mL (≈ 5.72 to 715 µM).
On to `COc1ccc(C2=NN(C(N)=S)C(c3cc4ccc(C)cc4n4nnnc34)C2)cc1` (centres undefined), for which the minimum inhibitory concentration (MIC) in test [23], in test [1], in test [13], in [17], in test [24] and in test [5] was 3.12 to 25 µg/mL (≈ 7.49 to 59.9 µM) in each case. This molecule displayed a minimum inhibitory concentration (MIC) in test [7] of 3.12 to 25 µg/mL (≈ 7.49 to 59.9 µM).
For the molecule `Clc1cccc(-c2nnc(SCc3ccc(-c4ccccc4-c4nn[nH]n4)cc3)o2)c1`, the zone of inhibition at 100 µg/mL in [25], in [26], in test [27] and in test [28] was 20 to 27 mm in each case.
For `CC1(C)S[C@@H]2[C@H](NC(=O)[C@H](N)c3ccc(O)cc3)C(=O)N2[C@H]1C(=O)O` [AMOXICILLIN], the zone of inhibition at 30 µg/mL in test [29], in test [31], in test [34], in test [35], in [36] and in test [38] was 25 to 28 mm each time. For the same molecule, the zone of inhibition at 250 µg/mL in [30], in [32], in [33], in [37], in test [39] and in [40] was 21 to 27 mm each time. In addition, the zone of inhibition at 250 µg/mL in [41] was in the range of 21 to 27 mm.
As for `Cn1nnnc1SCC(=O)Nc1ccc(-c2nc3cc(Cl)c(Cl)cc3n2C)cc1`, the MIC in [1], in test [42], in test [13], in test [14], in [9] and in [3] was 12.5 to 400 µg/mL (≈ 27.9 to 892 µM) in each case. The MIC in test [10], in test [43], in [5], in [22], in test [7] and in test [44] was 12.5 to 400 µg/mL (≈ 27.9 to 892 µM) each time.
In the case of `COc1ccc(C2=NN(C(N)=S)C(c3cc4cc(C)ccc4n4nnnc34)C2)cc1` (centres undefined), the MIC in test [23], in [1], in test [13], in test [17], in [24] and in test [5] was 3.12 to 25 µg/mL (≈ 7.49 to 59.9 µM) throughout. The minimum inhibitory concentration (MIC) in [7] lay in the range of 3.12 to 25 µg/mL (≈ 7.49 to 59.9 µM).
In the case of `COc1ccc(/C=C2\SC(=O)N(Cc3ccc(-c4ccccc4-c4nnn[nH]4)cc3)C2=O)cc1`, the Ratio in test [45] and in test [46] was more than 2.91 in each case. In addition, the minimum inhibitory concentration (MIC) in [3] was found to be 8.33 µg/mL (≈ 17.7 µM); in [7], 7.7 µg/mL (≈ 16.4 µM).
